From patent US10125134B2 (Mirati Therapeutics, Inc., priority 2016, dated 2018)
Like-named read-outs stand apart in the source and are kept apart here.

Experiments:
KRas G12C = KRas G12C (Homo sapiens, UniProt P01116, C118S/C51S/C80L/G12C); experiment: KRas G12C Modification Assay (LCMS detection of covalent adduct); type: binding; settings: normalized percent of control; tested at 5 μM concentration for 3 hours
In short: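 Cys-light KRas G12C mutant protein incubated with compound in K-Ras assay buffer, reactions quenched at set time points with 25 mM acetic acid and analysed by intact-protein LC/MS on a C-3 column. Deconvoluted mass heights expressed as percent of control (POC) relative to compound-free protein.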

[1] = test system: NCI-H358 cells (express KRas G12C), Phospho-ERK; experiment: Cellular inhibition of KRas G12C: Phospho-ERK in NCI-H358 cells; type: cell-based; settings: pERK(Thr202/Tyr204) normalized with GAPDH, NCI-H358 cells, 3 hours, read-out: IC50
In short: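 IC50 derived by 4-parameter fit of GAPDH-normalized pERK(Thr202/Tyr204) signal, as percent of DMSO control. Signal came from in-cell immunodetection with infrared secondaries after 3 h compound exposure of KRas G12C NCI-H358 cells at 0.5% DMSO.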

| Compound | POC (KRas G12C) | IC50 ([1]; Homo sapiens) | IC50 ([1]; Homo sapiens, NCI-H358, 3 h) | IC50 [1] |
| --- | --- | --- | --- | --- |
| Cc1cccc(N2CCc3c(nc(OC[C@@H]4C[C@@H](F)CN4C)nc3N3CCN(C(=O)/C=C/CN(C)C)[C@@H](CC#N)C3)C2)c1C [Example 436, 2-((S)-1-((E)-4-(dimethylamino)but-2-enoyl)-4-(7-(2,3-dimethylphenyl)-2-(((2S,4R)-4-fluoro-1-methylpyrrolidin-2-yl)methoxy)-5,6,7,8-tetrahydropyrido[3,4-d]pyrimidin-4-yl)piperazin-2-yl)acetonitrile] | C (“C”>50% POC) | 0.1 to 1000 nM | – | – |
| C=CC(=O)N1CCN(c2nc(OC[C@H]3CCCN3CC)nc3c2CCN(c2cccc4ccccc24)C3)C[C@@H]1CC#N [Example 334, 2-[(2S)-4-[2-[[(2R)-1-ethylpyrrolidin-2-yl]methoxy]-7-(1-naphthyl)-6,8-dihydro-5H-pyrido[3,4-d]pyrimidin-4-yl]-1-prop-2-enoyl-piperazin-2-yl]acetonitrile] | C (“C”>50% POC) | – | 0.1 to 1000 nM | – |
| C=CC(=O)N1CCN(c2nc(OC[C@H]3CCCN3C)nc3c2CCN(c2cc(O)cc4ccccc24)C3)C[C@@H]1CC#N [Example 344, 2-[(2S)-4-[7-(3-hydroxy-1-naphthyl)-2-[[(2R)-1-methylpyrrolidin-2-yl]methoxy]-6,8-dihydro-5H-pyrido[3,4-d]pyrimidin-4-yl]-1-prop-2-enoyl-piperazin-2-yl]acetonitrile] | C (“C”>50% POC) | – | 0.1 to 1000 nM | – |
| C=CC(=O)N1CCN(c2nc(O[C@H](C)CN3CC[C@H](O)C3)nc3c2CCN(c2cc(O)cc4ccccc24)C3)CC1 [Example 65, 1-(4-(7-(3-hydroxynaphthalen-1-yl)-2-(((R)-1-((S)-3-hydroxypyrrolidin-1-yl)propan-2-yl)oxy)-5,6,7,8-tetrahydropyrido[3,4-d]pyrimidin-4-yl)piperazin-1-yl)prop-2-en-1-one] | C (“C”>50% POC) | – | > 1000 nM | – |
| C=CC(=O)N1CCN(c2nc(OC[C@@H]3C[C@@H](O)CN3C)nc3c2CCN(c2cccc(Cl)c2C(F)(F)F)C3)C[C@@H]1CC#N [Example 425, 2-((S)-1-acryloyl-4-(7-(3-chloro-2-(trifluoromethyl)phenyl)-2-(((2S,4R)-4-hydroxy-1-methylpyrrolidin-2-yl)methoxy)-5,6,7,8-tetrahydropyrido[3,4-d]pyrimidin-4-yl)piperazin-2-yl)acetonitrile] | C (“C”>50% POC) | – | 0.1 to 1000 nM | – |
| C=CC(=O)N1CCN(c2nc(N3CCCC3)nc3c2CCN(c2cc(O)cc4ccccc24)C3)CC1 [Example 119, 1-(4-(7-(3-hydroxynaphthalen-1-yl)-2-(pyrrolidin-1-yl)-5,6,7,8-tetrahydropyrido[3,4-d]pyrimidin-4-yl)piperazin-1-yl)prop-2-en-1-one] | B (“B”>25% POC−≤50% POC) | – | > 1000 nM | – |
| C=CC(=O)N1CCN(c2nc(OCCNC(C)=O)nc3c2CCN(c2cc(O)cc4ccccc24)C3)CC1 [Example 59, N-(2-((4-(4-acryloylpiperazin-1-yl)-7-(3-hydroxynaphthalen-1-yl)-5,6,7,8-tetrahydropyrido[3,4-d]pyrimidin-2-yl)oxy)ethyl)acetamide] | C (“C”>50% POC) | – | > 1000 nM | – |
| C=CC(=O)N1CCN(c2nc(OCC(O)CN3CCOCC3)nc3c2CCN(c2cc(O)cc4ccccc24)C3)CC1 (centres unmarked) [Example 123, 1-(4-(2-(2-hydroxy-3-morpholinopropoxy)-7-(3-hydroxynaphthalen-1-yl)-5,6,7,8-tetrahydropyrido[3,4-d]pyrimidin-4-yl)piperazin-1-yl)prop-2-en-1-one] | A (“A”≤25% POC) | – | > 1000 nM | – |
| C=CC(=O)N1CCN(c2nc(OC[C@@H]3CCCN3C)nc3c2CCN(c2ncccc2C(F)(F)F)C3)CC1CC#N (stereo partly drawn) [Example 373, 2-(1-acryloyl-4-(2-(((S)-1-methylpyrrolidin-2-yl)methoxy)-7-(3-(trifluoromethyl)pyridin-2-yl)-5,6,7,8-tetrahydropyrido[3,4-d]pyrimidin-4-yl)piperazin-2-yl)acetonitrile] | C (“C”>50% POC) | – | > 1000 nM | – |
| C=CC(=O)N1CCN(c2ncnc3c2CCN(C(CO)c2ccccc2)C3)CC1 (centres unmarked) [Example 71, 1-(4-(7-(2-hydroxy-1-phenylethyl)-5,6,7,8-tetrahydropyrido[3,4-d]pyrimidin-4-yl)piperazin-1-yl)prop-2-en-1-one] | A (“A”≤25% POC) | > 1000 nM | – | – |
| C=CC(=O)N1CCN(c2nc(OC[C@@H]3C[C@@H](OC)CN3C)nc3c2CCN(c2cc(OC)cc4ccccc24)C3)CC1 [Example 356, 1-[4-[2-[[(2S,4R)-4-methoxy-1-methyl-pyrrolidin-2-yl]methoxy]-7-(3-methoxy-1-naphthyl)-6,8-dihydro-5H-pyrido[3,4-d]pyrimidin-4-yl]piperazin-1-yl]prop-2-en-1-one] | C (“C”>50% POC) | – | > 1000 nM | – |
| C=CC(=O)N1CCN(c2nc(OCCN(CC)CC)nc3c2CCN(c2ccccc2C(F)(F)F)C3)CC1CC#N (centres unmarked) [Example 300, 2-[4-[2-[2-(diethylamino)ethoxy]-7-[2-(trifluoromethyl)phenyl]-6,8-dihydro-5H-pyrido[3,4-d]pyrimidin-4-yl]-1-prop-2-enoyl-piperazin-2-yl]acetonitrile] | C (“C”>50% POC) | – | – | 0.1 to 1000 nM |
| C=CC(=O)N1CCN(c2nc(OC[C@@H]3CCCN3C)nc3c2CCN(c2c(C)ccc4[nH]ncc24)C3)CC1CC#N (stereo partly drawn) [Example 148, 2-[4-[7-(5-methyl-1H-indazol-4-yl)-2-[[(2S)-1-methylpyrrolidin-2-yl]methoxy]-6,8-dihydro-5H-pyrido[3,4-d]pyrimidin-4-yl]-1-prop-2-enoyl-piperazin-2-yl]acetonitrile] | C (“C”>50% POC) | 0.1 to 1000 nM | – | – |
| C=CC(=O)N1CCN(c2nc(OC[C@@H]3CCCN3C)nc3c2CCN(c2ccc(F)c4ccccc24)C3)C[C@@H]1CC#N [Example 316, 2-((S)-1-acryloyl-4-(7-(4-fluoronaphthalen-1-yl)-2-(((S)-1-methylpyrrolidin-2-yl)methoxy)-5,6,7,8-tetrahydropyrido[3,4-d]pyrimidin-4-yl)piperazin-2-yl)acetonitrile] | C (“C”>50% POC) | – | 0.1 to 1000 nM | – |
| C=CC(=O)N1CCN(c2nc(OCCCN3CCOCC3)nc3c2CCN(c2cc(O)ccc2OC(F)(F)F)C3)CC1 [Example 90, 1-(4-(7-(5-hydroxy-2-(trifluoromethoxy)phenyl)-2-(3-morpholinopropoxy)-5,6,7,8-tetrahydropyrido[3,4-d]pyrimidin-4-yl)piperazin-1-yl)prop-2-en-1-one] | C (“C”>50% POC) | 0.1 to 1000 nM | – | – |
| C=CC(=O)N1CCN(c2nc(OCCN(C)C)nc3c2CCN(c2cc(O)cc4ccccc24)C3C)CC1 (centres unmarked) [Example 47, 1-(4-(2-(2-(dimethylamino)ethoxy)-7-(3-hydroxynaphthalen-1-yl)-8-methyl-5,6,7,8-tetrahydropyrido[3,4-d]pyrimidin-4-yl)piperazin-1-yl)prop-2-en-1-one] | C (“C”>50% POC) | > 1000 nM | – | – |
| C=CC(=O)N1CCN(c2nc(OC[C@@H]3CCCN3C)nc3c2CCN(c2cccc4ccc(Cl)cc24)C3)CC1CC#N (stereo partly drawn) [Example 286, 2-(1-acryloyl-4-(7-(7-chloronaphthalen-1-yl)-2-(((S)-1-methylpyrrolidin-2-yl)methoxy)-5,6,7,8-tetrahydropyrido[3,4-d]pyrimidin-4-yl)piperazin-2-yl)acetonitrile] | C (“C”>50% POC) | – | – | 0.1 to 1000 nM |
| C=CC(=O)N1CCN(c2nc(OCCN(C)C)nc3c2CCN(c2cc(O)cc4ccccc24)C3)C(CO)C1 (centres unmarked) [Example 53, 1-(4-(2-(2-(dimethylamino)ethoxy)-7-(3-hydroxynaphthalen-1-yl)-5,6,7,8-tetrahydropyrido[3,4-d]pyrimidin-4-yl)-3-(hydroxymethyl)piperazin-1-yl)prop-2-en-1-one] | C (“C”>50% POC) | – | > 1000 nM | – |
| C=CC(=O)N1CCN(c2nc(OC[C@@H]3CCCN3C)nc3c2CCN(c2c(C)ccc4cn[nH]c24)C3)CC1CC#N (stereo partly drawn) [Example 238, 2-(1-acryloyl-4-(7-(6-methyl-1H-indazol-7-yl)-2-(((S)-1-methylpyrrolidin-2-yl)methoxy)-5,6,7,8-tetrahydropyrido[3,4-d]pyrimidin-4-yl)piperazin-2-yl)acetonitrile] | C (“C”>50% POC) | – | 0.1 to 1000 nM | – |
| C=CC(=O)N1CCN(c2nc(OCCN3CCCCC3)nc3c2CCN(c2cccc4ccccc24)C3)C[C@@H]1CC#N [Example 408, (S)-2-(1-acryloyl-4-(7-(naphthalen-1-yl)-2-(2-(piperidin-1-yl)ethoxy)-5,6,7,8-tetrahydropyrido[3,4-d]pyrimidin-4-yl)piperazin-2-yl)acetonitrile] | C (“C”>50% POC) | – | 0.1 to 1000 nM | – |
| C=CC(=O)N1CCN(c2nc(OC[C@@H]3CCCN3C)nc3c2CCN(c2ccccc2CC(F)(F)F)C3)CC1CC#N (stereo partly drawn) [Example 374, 2-(1-acryloyl-4-(2-(((S)-1-methylpyrrolidin-2-yl)methoxy)-7-(2-(2,2,2-trifluoroethyl)phenyl)-5,6,7,8-tetrahydropyrido[3,4-d]pyrimidin-4-yl)piperazin-2-yl)acetonitrile] | C (“C”>50% POC) | – | – | > 1000 nM |
| C=CC(=O)N1CCN(c2nc(OC[C@@H]3CCCN3C)nc3c2CCN(c2ccc(F)cc2C(F)(F)F)C3)CC1CC#N (stereo partly drawn) [Example 412, 2-(1-acryloyl-4-(7-(4-fluoro-2-(trifluoromethyl)phenyl)-2-(((S)-1-methylpyrrolidin-2-yl)methoxy)-5,6,7,8-tetrahydropyrido[3,4-d]pyrimidin-4-yl)piperazin-2-yl)acetonitrile] | C (“C”>50% POC) | – | – | 0.1 to 1000 nM |
